Several values for one entry are separate records, joined by “and”; a condition that tells them apart may be missing. Equal entries are not always repeated.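 Values below derive from 48-hour exposures of cells grown in 96-well plates, with endpoints linearly interpolated between the two concentrations bracketing the appropriate inhibition level. GI50: concentration for 50% inhibition of growth. TGI denotes the concentration required for complete inhibition of growth.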
How the values were obtained:
Assay in all cases: NCI tumour cell line growth inhibition, 48 h
TK-10 renal = system: TK-10 renal
SK-MEL-28 melanoma = system: SK-MEL-28 melanoma
IGROV1 ovarian = system: IGROV1 ovarian
SK-MEL-2 melanoma = system: SK-MEL-2 melanoma
UO-31 renal = system: UO-31 renal
CCRF-CEM leukemia = system: CCRF-CEM leukemia
T-47D breast = system: T-47D breast
K-562 leukemia = system: K-562 leukemia
ACHN renal = system: ACHN renal
CAKI-1 renal = system: CAKI-1 renal

SMILES	TGI (TK-10 renal) [µM]	TGI (SK-MEL-28 melanoma) [µM]	TGI (IGROV1 ovarian) [µM]	TGI (SK-MEL-2 melanoma)	TGI (UO-31 renal) [µM]	TGI (CCRF-CEM leukemia) [µM]	TGI (T-47D breast) [µM]	TGI (K-562 leukemia) [µM]	TGI (ACHN renal) [µM]	TGI (CAKI-1 renal) [µM]	GI50 (TK-10 renal)	GI50 (IGROV1 ovarian)	GI50 (SK-MEL-2 melanoma)	GI50 (CCRF-CEM leukemia) [µM]	GI50 (SK-MEL-28 melanoma) [µM]	GI50 (UO-31 renal) [µM]	GI50 (T-47D breast) [µM]	GI50 (K-562 leukemia) [µM]	GI50 (ACHN renal) [µM]	GI50 (CAKI-1 renal) [µM]
CC1(C)C2CC3C(C)(C2)C31c1cc(Cl)ccc1N (stereo not given)	29.1	31.3	27.6	29.4 µM	26.8	33.4	26.2	23.5	29	29.1										
O=C1C(c2ccccc2)=C(c2ccccc2)C1(Cl)Cl	2.81	10.9	15.3	8.7 µM	13.5	3.96	10.6	4.13	7.09	6.15										
N#Cc1ccc(-c2ccc(Cl)cc2)n(C2OC(CO)C(O)C(O)C2O)c1=S (stereo not given)	> 100	> 100	> 100	> 100 µM and 52.5 µM	> 100	> 100	> 100	> 100	> 100	> 100	> 100 µM and 49 µM	> 100 µM and 28 µM	> 100 µM and 10.6 µM	> 100						
c1ccc2c(c1)nnn2C1CCCCO1 (stereo not given)	> 100	> 100	> 100	> 100 µM	> 100	> 100	> 100	> 100	> 100	> 100										
C1=CC2C(C3CN(c4ccccc4)N=C13)C1C3C4C=CC21C=CC43 (stereo not given)	> 100	> 100	> 100	> 100 µM	> 100	> 100	> 100	> 100	> 100	> 100										
N#Cc1c(/C=C/c2ccccc2)c2c([nH]c1=S)CCCCC2	> 100	> 100	> 100	> 100 µM	> 100	> 100	> 100	> 100	> 100	> 100										
CCCCCCCCCCCC(=O)N(CCCCCCCCC)CC(O)C(O)C(OC1OC(CO)C(O)C(O)C1O)C(O)CO (stereo not given)	29.8	35.2	33.6	43.9 µM	30.9	41	44.3	50.2	32.1	35.5										
CCC[N+](C)(C)CCCNC(=O)c1c(O)c2ccccc2[nH]c1=O	> 100	> 100	> 100	> 100 µM	> 100	> 100	> 100	> 100	> 100	> 100										
CCOC(=O)c1ccc2nc3n(c2c1)C(c1c(F)cccc1F)SC3 (stereo not given)	> 100	> 100	> 100	> 100 µM	> 100	> 100	> 100	> 100	> 100	> 100										
O=[N+]([O-])c1c(O)c2nonc2c2nn(-c3ccccc3)nc12	> 100	> 100	> 100	> 100 µM	> 100	> 100	> 100	> 100	> 100	> 100										
O=C(CC(=O)N1N=C(c2ccccc2)C(N=Nc2ccc(S(=O)(=O)CCOS(=O)(=O)O)cc2)C1=O)Nc1ccc(Cl)cc1 (stereo not given)	> 100	> 100	72.3	> 100 µM	> 100	> 100	> 100	> 100	> 100	> 100										
Cc1ccc2sc3c(NCCCN)nc4ccccc4c3c(=O)c2c1	3.52	3.28	3.26	4.66 µM	2.98	5.61	4.57	4.51	3.09	3.25	1.81 µM	1.61 µM	2.18 µM	2.32	1.78	1.51	1.89	2	1.71	1.67
CN(C)C(=O)N1N[C@H](c2ccccc2)[C@@H]1c1ccccc1	> 100	> 100	> 100	> 100 µM	> 100	> 100	> 100	> 100	> 100	> 100										
CC1(C)CCCCCC(O)C(O)CCC(C)(C)C1=O (stereo not given)	> 100	> 100	> 100	> 100 µM	> 100	> 100	> 100	> 100	> 100	> 100										
CC1(C)CCC2=C(O1)c1ccccc1C(=Nc1ccc([N+](=O)[O-])cc1)C2=O	32.6	29.8	> 100	32.8 µM	22.4	46.7	31	> 100	25.5	32.2				19.6						
CCN(CC)/N=C\c1c2ccccc2cc2ccccc12	> 100	> 100	> 100	61.9 µM	> 100	94.4	> 100	> 100	> 100	> 100										

SMILES	TGI (TK-10 renal) [µM]	TGI (SK-MEL-28 melanoma) [µM]	TGI (IGROV1 ovarian) [µM]	TGI (SK-MEL-2 melanoma)	TGI (UO-31 renal) [µM]	TGI (CCRF-CEM leukemia) [µM]	TGI (T-47D breast) [µM]	TGI (K-562 leukemia) [µM]	TGI (ACHN renal) [µM]	TGI (CAKI-1 renal) [µM]	GI50 (TK-10 renal)	GI50 (IGROV1 ovarian)	GI50 (SK-MEL-2 melanoma)	GI50 (CCRF-CEM leukemia) [µM]	GI50 (SK-MEL-28 melanoma) [µM]	GI50 (UO-31 renal) [µM]	GI50 (T-47D breast) [µM]	GI50 (K-562 leukemia) [µM]	GI50 (ACHN renal) [µM]	GI50 (CAKI-1 renal) [µM]
COc1cc2nc(-c3cccs3)nc(Nc3ccccc3C(=O)NN)c2cc1OC	> 100	> 100	> 100	> 100 µM	> 100	> 100	> 100	> 100	> 100	> 100										
COP(=O)(CP(=O)(OC)OCCC(C)CCC=C(C)C)OC (stereo not given)	> 100	> 100	> 100	> 100 µM	> 100	> 100	> 100	> 100	> 100	> 100										
C[Si](C)(C)OC1(C#N)c2ccccc2CCCC12CCCC2 (stereo not given)	> 100	> 100	> 100	45.7 µM	> 100	46	85.5	> 100	> 100	> 100										
CSc1nnnc2ccccc12	> 100	> 100	> 100	> 100 µM	> 100	> 100	> 100	> 100	> 100	> 100										
O=C(CCCCCNC(=O)c1ccc(Cl)cc1)NO	16.4	> 100	25	7.22 µM	37.8	> 100	5.14	> 100	41.6	21.1										
Cc1cc2nc3c(C#N)c(C)c(CCCl)c(Cl)n3c2cc1C	4.24	15.5	3.93	3.99 µM	7.25	7.38	8.9	6.63	11.1	9.43										
C=CC(=O)N1C/C(=C\c2ccc(OC)cc2)C(=O)/C(=C/c2ccc(OC)cc2)C1	> 36.1	10.8	> 21.4	8.57 µM	3.52	> 25.7	> 100	> 100	3.47	11.7										
COc1cc2c3c(n(C)c(=O)c2cc1OC)-c1cc2c(cc1/C3=C\CCCCl)OCO2	37.3	> 100	> 100	98.9 µM	> 100	> 100	> 100	> 100	> 100	> 100										
Clc1nc2nc(N3CCNCC3)nc(N3CCCC3)c2[nH]1	> 100	39.6	32.7	35.4 µM	29.6	41	33.6	52.7	37.7	> 100										
[N-]=[N+]=Nc1cc(=O)[nH]c2ccccc12	> 100	> 100	> 100	> 100 µM	> 100	> 100	> 100	> 100	> 100	> 100										
COC(=O)N[C@@H]1C[C@H]2CC[C@]1(O[Si](C(C)C)(C(C)C)C(C)C)C(=O)C2	30.6	36.8	32	35.3 µM	32	> 100	> 100	> 100	45.7	> 100										
COC1(OC)CC(CO)(COc2cc(Cl)nc(N)n2)C1	> 100	> 100	> 100	> 100 µM	> 100	> 100	> 100	> 100	> 100	> 100										
C=C(C)C1(Sc2ccc(OC)cc2)CC1	> 100	> 100	98.4	56.5 µM	> 100	> 100	> 100	> 100	> 100	> 100										
Cc1cnc2c(c1)C(=O)N(c1ccc(Oc3ccccc3)cc1)S2(=O)=O	> 100	> 100	> 100	> 100 µM	> 100	> 100	> 100	> 100	> 100	> 100										
N=C1C=CC(=C(c2ccc(N)cc2)c2ccc(N)cc2)C=C1	28.1	26.1	31.5	10.4 µM	29.2	19.5	8.74	27.1	31.2	58.1										

Reference: PubChem BioAssay (NCI)
